#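 Exposure lasted 48 hours, with cells grown in 96-well plates and compounds tested at five concentrations. Definition used: TGI = concentration required for complete inhibition of growth.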
# Key:
# Assay in all cases: NCI anticancer screen, dose series, 48 h
# NCI-H23 lung = system: NCI-H23 lung
# M14 melanoma = system: M14 melanoma
# MCF7 breast = system: MCF7 breast
# MOLT-4 leukemia = system: MOLT-4 leukemia
# SW-620 colon = system: SW-620 colon
# HT29 colon = system: HT29 colon
# SK-MEL-28 melanoma = system: SK-MEL-28 melanoma
# NCI-H226 lung = system: NCI-H226 lung
# HOP-92 NSCLC = system: HOP-92 NSCLC
# MDA-MB-435 = system: MDA-MB-435
# SK-MEL-5 melanoma = system: SK-MEL-5 melanoma
# SF-268 CNS = system: SF-268 CNS
# NCI/ADR-RES ovarian = system: NCI/ADR-RES ovarian
# OVCAR-8 ovarian = system: OVCAR-8 ovarian
# DU-145 prostate = system: DU-145 prostate
# MDA-MB-231 breast = system: MDA-MB-231 breast
# T-47D breast = system: T-47D breast
# NCI-H460 lung = system: NCI-H460 lung
# OVCAR-3 ovarian = system: OVCAR-3 ovarian
# OVCAR-5 ovarian = system: OVCAR-5 ovarian
# NCI-H522 lung = system: NCI-H522 lung
# LOX IMVI melanoma = system: LOX IMVI melanoma
# A498 renal = system: A498 renal
# UO-31 renal = system: UO-31 renal
# HS 578T breast = system: HS 578T breast
# KM12 colon = system: KM12 colon
# OVCAR-4 ovarian = system: OVCAR-4 ovarian
# SF-539 CNS = system: SF-539 CNS
# CCRF-CEM leukemia = system: CCRF-CEM leukemia
# SK-MEL-2 melanoma = system: SK-MEL-2 melanoma
# TK-10 renal = system: TK-10 renal
# SK-OV-3 ovarian = system: SK-OV-3 ovarian
# U251 CNS = system: U251 CNS
# 786-0 renal = system: 786-0 renal
# CAKI-1 renal = system: CAKI-1 renal
# RXF 393 renal = system: RXF 393 renal
# RPMI-8226 leukemia = system: RPMI-8226 leukemia
# HL-60(TB) leukemia = system: HL-60(TB) leukemia
# PC-3 prostate = system: PC-3 prostate
# HCC-2998 colon = system: HCC-2998 colon
# HOP-62 NSCLC = system: HOP-62 NSCLC
# EKVX NSCLC = system: EKVX NSCLC
# IGROV1 ovarian = system: IGROV1 ovarian
# MDA-N = system: MDA-N
# K-562 leukemia = system: K-562 leukemia
# UACC-257 melanoma = system: UACC-257 melanoma
# SF-295 CNS = system: SF-295 CNS
# ACHN renal = system: ACHN renal
# HCT-15 colon = system: HCT-15 colon
# HCT-116 colon = system: HCT-116 colon
# A549 NSCLC = system: A549 NSCLC
# COLO 205 colon = system: COLO 205 colon
# SN12C renal = system: SN12C renal
# SNB-19 CNS = system: SNB-19 CNS
# SNB-75 CNS = system: SNB-75 CNS
# SR leukemia = system: SR leukemia
smiles,measurement,setting,value
COc1ccc(C2=NN(C(=O)c3ccc(Cl)cc3)C(O)(c3cc(F)c(Cl)cc3Cl)C2)cc1OC (stereo unspecified),TGI,NCI-H23 lung,> 100 µM
same,TGI,M14 melanoma,> 100 µM
same,TGI,MCF7 breast,> 100 µM
same,TGI,MOLT-4 leukemia,> 100 µM
same,TGI,SW-620 colon,> 100 µM
same,TGI,HT29 colon,> 100 µM
same,TGI,SK-MEL-28 melanoma,> 100 µM
same,TGI,NCI-H226 lung,> 100 µM
same,TGI,HOP-92 NSCLC,> 100 µM
same,TGI,MDA-MB-435,> 100 µM
same,TGI,SK-MEL-5 melanoma,> 100 µM
same,TGI,SF-268 CNS,> 100 µM
same,TGI,NCI/ADR-RES ovarian,> 100 µM
same,TGI,OVCAR-8 ovarian,> 100 µM
same,TGI,DU-145 prostate,> 100 µM
same,TGI,MDA-MB-231 breast,> 100 µM
same,TGI,T-47D breast,> 100 µM
same,TGI,NCI-H460 lung,> 100 µM
same,TGI,OVCAR-3 ovarian,> 100 µM
same,TGI,OVCAR-5 ovarian,> 100 µM
same,TGI,NCI-H522 lung,> 100 µM
same,TGI,LOX IMVI melanoma,> 100 µM
same,TGI,A498 renal,> 100 µM
same,TGI,UO-31 renal,10.9 µM
same,TGI,HS 578T breast,> 100 µM
same,TGI,KM12 colon,> 100 µM
same,TGI,OVCAR-4 ovarian,> 100 µM
same,TGI,SF-539 CNS,> 100 µM
same,TGI,CCRF-CEM leukemia,> 100 µM
same,TGI,SK-MEL-2 melanoma,> 100 µM
same,TGI,TK-10 renal,> 100 µM
same,TGI,SK-OV-3 ovarian,> 100 µM
same,TGI,U251 CNS,> 100 µM
same,TGI,786-0 renal,> 100 µM
same,TGI,CAKI-1 renal,98.4 µM
same,TGI,RXF 393 renal,> 100 µM
same,TGI,RPMI-8226 leukemia,> 100 µM
same,TGI,HL-60(TB) leukemia,2.2 µM
same,TGI,PC-3 prostate,> 100 µM
same,TGI,HCC-2998 colon,> 100 µM
same,TGI,HOP-62 NSCLC,> 100 µM
same,TGI,EKVX NSCLC,> 100 µM
same,TGI,IGROV1 ovarian,> 100 µM
same,TGI,MDA-N,> 100 µM
same,TGI,K-562 leukemia,> 100 µM
same,TGI,UACC-257 melanoma,> 100 µM
same,TGI,SF-295 CNS,> 100 µM
same,TGI,ACHN renal,> 100 µM
same,TGI,HCT-15 colon,> 100 µM
same,TGI,HCT-116 colon,> 100 µM
Cn1c(-c2ccc(/C=N/N=C/c3ccc(-c4c[n+]5ccccc5n4C)cc3)cc2)c[n+]2ccccc12,TGI,M14 melanoma,> 100 µM
same,TGI,MCF7 breast,> 100 µM
same,TGI,MOLT-4 leukemia,> 100 µM
same,TGI,SW-620 colon,> 100 µM
same,TGI,HT29 colon,> 100 µM
same,TGI,SK-MEL-28 melanoma,> 100 µM
same,TGI,MDA-MB-435,> 100 µM
same,TGI,SK-MEL-5 melanoma,> 100 µM
same,TGI,SF-268 CNS,> 100 µM
same,TGI,NCI/ADR-RES ovarian,> 100 µM
same,TGI,OVCAR-8 ovarian,> 100 µM
same,TGI,MDA-MB-231 breast,> 100 µM
same,TGI,T-47D breast,> 100 µM
same,TGI,NCI-H460 lung,> 100 µM
same,TGI,OVCAR-5 ovarian,> 100 µM
same,TGI,NCI-H522 lung,> 100 µM
same,TGI,UO-31 renal,> 100 µM
same,TGI,HS 578T breast,> 100 µM
same,TGI,KM12 colon,> 100 µM
same,TGI,OVCAR-4 ovarian,> 100 µM
same,TGI,A549 NSCLC,> 100 µM
same,TGI,SF-539 CNS,> 100 µM
same,TGI,COLO 205 colon,> 100 µM
same,TGI,CCRF-CEM leukemia,> 100 µM
same,TGI,TK-10 renal,> 100 µM
same,TGI,SK-OV-3 ovarian,> 100 µM
same,TGI,U251 CNS,> 100 µM
same,TGI,786-0 renal,> 100 µM
same,TGI,RPMI-8226 leukemia,> 100 µM
same,TGI,HL-60(TB) leukemia,> 100 µM
same,TGI,PC-3 prostate,> 100 µM
same,TGI,SN12C renal,> 100 µM
same,TGI,HCC-2998 colon,> 100 µM
same,TGI,HOP-62 NSCLC,> 100 µM
same,TGI,EKVX NSCLC,> 100 µM
same,TGI,IGROV1 ovarian,> 100 µM
same,TGI,MDA-N,> 100 µM
same,TGI,SNB-19 CNS,> 100 µM
same,TGI,K-562 leukemia,> 100 µM
same,TGI,UACC-257 melanoma,> 100 µM
same,TGI,SF-295 CNS,> 100 µM
same,TGI,ACHN renal,> 100 µM
same,TGI,SNB-75 CNS,> 100 µM
same,TGI,SR leukemia,> 100 µM
same,TGI,HCT-15 colon,> 100 µM
same,TGI,HCT-116 colon,> 100 µM
